These are literature values, as cited in patent US10976310B2, “Ligand identification by co-fractionation” (MAX-PLANCK-GESELLSCHAFT ZUR FÖRDERUNG DER WISSENSCHAFTEN …, priority 2016, dated 2021).

By Kd is commonly meant the free concentration of one partner at which half of the binding sites on the other are occupied at equilibrium, for simple one-to-one binding.

The target in this data set is T1, PYR1 receptor (Arabidopsis thaliana, UniProt O49686).
T1 sequence (O49686 1-191): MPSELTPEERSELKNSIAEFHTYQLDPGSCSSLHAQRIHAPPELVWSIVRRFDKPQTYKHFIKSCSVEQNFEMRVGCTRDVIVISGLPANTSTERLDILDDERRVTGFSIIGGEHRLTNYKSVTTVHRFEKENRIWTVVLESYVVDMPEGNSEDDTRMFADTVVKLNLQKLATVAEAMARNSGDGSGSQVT
To be noted: Dupeux et al. (2011); read-out: Kd of binding to PYR1; cited from earlier work.

Regarding `CC1=CC(=O)CC(C)(C)[C@@]1(O)/C=C/C(C)=C\C(=O)O` [abscisic acid], the Kd was 97 µM.
